{"source": "patent US11208400B2", "about": "“Substituted 6-(1H-pyrazol-1-yl)pyrimidin-4-amine derivatives and uses thereof” (Bayer Aktiengesellschaft, priority 2016, dated 2021)"}
{"molecular_target": "T1, human Npt2a (Homo sapiens, UniProt Q06495)", "T1 construct": "expressed in transfected cells", "T1 sequence (Q06495 1-639)": "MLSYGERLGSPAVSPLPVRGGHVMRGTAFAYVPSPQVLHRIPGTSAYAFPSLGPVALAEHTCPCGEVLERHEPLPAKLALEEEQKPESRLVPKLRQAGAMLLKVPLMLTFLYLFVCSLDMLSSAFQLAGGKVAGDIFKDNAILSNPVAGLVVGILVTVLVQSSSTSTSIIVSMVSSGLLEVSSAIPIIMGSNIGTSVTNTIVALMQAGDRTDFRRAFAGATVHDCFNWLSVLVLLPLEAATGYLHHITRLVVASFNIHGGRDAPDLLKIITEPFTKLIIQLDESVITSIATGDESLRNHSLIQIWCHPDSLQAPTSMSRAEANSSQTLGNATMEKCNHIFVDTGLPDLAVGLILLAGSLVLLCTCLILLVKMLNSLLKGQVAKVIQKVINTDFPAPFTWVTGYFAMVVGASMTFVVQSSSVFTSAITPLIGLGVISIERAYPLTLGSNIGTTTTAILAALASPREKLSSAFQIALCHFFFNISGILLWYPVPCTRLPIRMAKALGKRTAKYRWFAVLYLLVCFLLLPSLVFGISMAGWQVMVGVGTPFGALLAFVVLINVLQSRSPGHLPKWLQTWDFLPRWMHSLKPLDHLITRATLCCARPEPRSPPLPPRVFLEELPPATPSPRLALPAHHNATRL", "test": "Npt2a activity cell based assay, membrane potential dye, CHO T-REx hNpt2a cells", "conditions": "doxycycline-induced, depolarization by sodium phosphate influx, average or median values if tested more than once", "method_in_brief": "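Doxycycline-induced (0.5 μg/mL, 24 h) CHO T-REx cells were loaded with membrane potential dye in sodium-free NHE buffer (pH 7.4) and exposed to compound (50 μM–1 nM, 5 min, room temperature).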", "units": {"IC50": "nM"}}
{"smiles": "Cc1nn(-c2cc(Nc3c(C)c(-c4ccc(F)cc4)nn3CC3CC3)ncn2)c2c1C(O)(C(F)(F)F)CC2", "note": "(racemic) [Example 386, (±)-1-(6-{[1-(cyclopropylmethyl)-3-(4-fluorophenyl)-4-methyl-1H-pyrazol-5-yl]amino}pyrimidin-4-yl)-3-methyl-4-(trifluoromethyl)-1,4,5,6-tetrahydrocyclopenta[c]pyrazol-4-ol]", "IC50": 12}
{"smiles": "Cc1nn(-c2cc(Nc3nn(C)c(-c4ccc(F)cc4)c3OC(F)F)ncn2)c(C)c1Cl", "note": "[Example 413, 6-(4-chloro-3,5-dimethyl-1H-pyrazol-1-yl)-N-[4-(difluoromethoxy)-5-(4-fluorophenyl)-1-methyl-1H-pyrazol-3-yl]pyrimidin-4-amine]", "IC50": 4}
{"smiles": "Cc1nn(-c2cc(Nc3c(C)c(-c4ccc(C#N)cc4)nn3C)ncn2)c(C(F)F)c1Cl", "note": "[Example 241, 4-[5-({6-[4-chloro-5-(difluoromethyl)-3-methyl-1H-pyrazol-1-yl]pyrimidin-4-yl}amino)-1,4-dimethyl-1H-pyrazol-3-yl]benzonitrile]", "IC50": 7}
{"smiles": "Cc1nn(-c2cc(Nc3c(C)c(-c4ccc(Cl)cc4)nn3CC3CC3)ncn2)c(C)c1C(C)(C)O", "note": "[Example 347, 2-[1-(6-{[3-(4-chlorophenyl)-1-(cyclopropylmethyl)-4-methyl-1H-pyrazol-5-yl]amino}pyrimidin-4-yl)-3,5-dimethyl-1H-pyrazol-4-yl]propan-2-ol]", "IC50": 23}
{"smiles": "Cc1nn(-c2cc(Nc3c(C)c(-c4ccc(OC(F)(F)F)cc4)nn3CC3CC3)ncn2)c(C)c1C(C)(C)O", "note": "[Example 289, 2-{1-[6-({1-(cyclopropylmethyl)-4-methyl-3-[4-(trifluoromethoxy)phenyl]-1H-pyrazol-5-yl}amino)pyrimidin-4-yl]-3,5-dimethyl-1H-pyrazol-4-yl}propan-2-ol]", "IC50": 23}
{"smiles": "CC(=O)Oc1c(C)nn(-c2cc(Nc3c(C)c(-c4ccc(F)cc4)nn3CC3CC3)ncn2)c1C", "note": "[Example 497, 1-(6-{[1-(cyclopropylmethyl)-3-(4-fluorophenyl)-4-methyl-1H-pyrazol-5-yl]amino}pyrimidin-4-yl)-3,5-dimethyl-1H-pyrazol-4-yl acetate]", "IC50": 3}
{"smiles": "CCOC(=O)c1c(C)nn(-c2cc(Nc3nn(CC4CC4)c(-c4ccc(F)cc4)c3Cl)ncn2)c1C", "note": "[Example 153, ethyl 1-(6-{[4-chloro-1-(cyclopropylmethyl)-5-(4-fluorophenyl)-1H-pyrazol-3-yl]amino}pyrimidin-4-yl)-3,5-dimethyl-1H-pyrazole-4-carboxylate]", "IC50": 410}
{"smiles": "Cc1nn(-c2cc(Nc3c(C)c(-c4ccc(C#N)cc4)nn3CC3CC3)ncn2)c(C)c1C(O)C(F)(F)F", "note": "(single isomer, unassigned) [Example 359, 4-{1-(cyclopropylmethyl)-5-[(6-{3,5-dimethyl-4-[2,2,2-trifluoro-1-hydroxyethyl]-1H-pyrazol-1-yl}pyrimidin-4-yl)amino]-4-methyl-1H-pyrazol-3-yl}benzonitrile]", "IC50": 15}
{"smiles": "CCc1c(-c2ccc(F)cc2)nn(CC2CC2)c1Nc1cc(-n2nc(C)c(C#N)c2C)ncn1", "note": "[Example 349, 1-(6-{[1-(cyclopropylmethyl)-4-ethyl-3-(4-fluorophenyl)-1H-pyrazol-5-yl]amino}pyrimidin-4-yl)-3,5-dimethyl-1H-pyrazole-4-carbonitrile]", "IC50": 49}
{"smiles": "CCCN1Cc2cnn(-c3cc(Nc4c(C)c(-c5ccc(F)cc5)nn4CC4CC4)ncn3)c2C1", "note": "[Example 522, N-[1-(cyclopropylmethyl)-3-(4-fluorophenyl)-4-methyl-1H-pyrazol-5-yl]-6-(5-propyl-5,6-dihydropyrrolo[3,4-c]pyrazol-1(4H)-yl)pyrimidin-4-amine]", "IC50": 910}
{"smiles": "CCOC(=O)c1c(Cl)c(C)nn1-c1cc(Nc2nn(C)c(-c3ccc(F)cc3)c2C)ncn1", "note": "[Example 259, ethyl 4-chloro-1-(6-{[5-(4-fluorophenyl)-1,4-dimethyl-1H-pyrazol-3-yl]amino}pyrimidin-4-yl)-3-methyl-1H-pyrazole-5-carboxylate]", "IC50": 50}
